Results published in ChEMBL document CHEMBL3044811, “Efficacy of grain protectants against four psocid species on maize, rice and wheat” (2009).
Activity calls are given as the source filed them. The rule behind the calls is not given here.

How the values were obtained:
[1] = system: Liposcelis bostrychophila; assay: Insecticidal activity against Liposcelis bostrychophila (booklice) in compound pre-treated maize grains assessed as decrease in progeny production at 8 ppm after 30 days; format: functional, organism-based
[2] = system: Liposcelis bostrychophila; assay: Insecticidal activity against Liposcelis bostrychophila (booklice) in compound pre-treated maize grains assessed as mortality at 8 ppm after 7 days (reference value: 8.9 +/-2.6%); format: functional
[3] = system: Lepinotus reticulatus; assay: Insecticidal activity against Lepinotus reticulatus in compound pre-treated maize grains assessed as mortality at 8 ppm after 7 days (reference value: 34.4 +/-11.4%); format: functional
[4] = system: Lepinotus reticulatus; assay: Insecticidal activity against Lepinotus reticulatus in compound pre-treated maize grains assessed as decrease in progeny production at 8 ppm after 30 days; format: functional, organism-based
[5] = system: Liposcelis bostrychophila; assay: Insecticidal activity against Liposcelis bostrychophila (booklice) in compound pre-treated maize grains assessed as mortality at 8 ppm after 14 days (reference value: 13.5 +/-5.3%); format: functional
[6] = system: Lepinotus reticulatus; assay: Insecticidal activity against Lepinotus reticulatus in compound pre-treated maize grains assessed as mortality at 8 ppm after 14 days (reference value: 61.1 +/-11.9%); format: functional
[7] = system: Liposcelis entomophila; assay: Insecticidal activity against Liposcelis entomophila in compound pre-treated maize grains assessed as mortality at 8 ppm after 7 days (reference value: 15.6 +/-6.9%); format: functional
[8] = system: Liposcelis entomophila; assay: Insecticidal activity against Liposcelis entomophila in compound pre-treated maize grains assessed as decrease in progeny production at 8 ppm after 30 days; format: functional, organism-based
[9] = system: Liposcelis paeta; assay: Insecticidal activity against Liposcelis paeta in compound pre-treated maize grains assessed as mortality at 8 ppm after 7 days (reference value: 13.3 +/-3.3%); format: functional
[10] = system: Liposcelis entomophila; assay: Insecticidal activity against Liposcelis entomophila in compound pre-treated maize grains assessed as mortality at 8 ppm after 14 days (reference value: 14.4 +/-4.1%); format: functional
[11] = system: Liposcelis paeta; assay: Insecticidal activity against Liposcelis paeta in compound pre-treated maize grains assessed as mortality at 8 ppm after 14 days (reference value: 14.1 +/-4.1%); format: functional

For `CCN(CC)c1nc(C)cc(OP(=S)(OC)OC)n1` [PIRIMIPHOS METHYL], the inhibition [1] was “Active”, the mortality at 8 ppm [2] was 100% and the mortality at 8 ppm [3] was 100%. The inhibition [4] was “Active”, the mortality at 8 ppm [5] was 100% and the mortality at 8 ppm [6] was 100%. For the same compound, the mortality at 8 ppm [7] was 100%, the inhibition [8] was “Active” and the mortality at 8 ppm [9] was 97.8%. For the same compound, the mortality at 8 ppm [10] was 100% and the mortality at 8 ppm [11] was 100%.
